Test system: P. falciparum 3D7 growth, pLDH absorbance
Assay: P. falciparum 3D7 growth inhibition, dose response, strain 3D7 (AID 2305)

Compound | IC50
CCN(c1ccc(O)c(CN2CCCCC2)c1)c1ccc([N+](=O)[O-])cn1 | 890 nM
Cc1ccccc1C1CCN(C2CCC(NC(=O)c3ccc(-c4cccc(C(F)(F)F)c4)o3)CC2)CC1 (configuration not stated) | 350 nM
Cc1nc2ccc(F)cc2n1C1CCN(C(=O)Cc2ccc(F)c(F)c2)CC1 | 1410 nM
Cn1cnc2c(Nc3ccncc3)nc(-c3ccc4ccccc4c3)nc21 | 870 nM
O=C(N[C@H]1CCN(Cc2ccc(OC3CCN(Cc4ccccc4)CC3)cc2)C1)c1ccc(Cl)c(Cl)c1 | 730 nM
CC(C)C[C@H](NC(=O)c1ccc(OCCN2CCOCC2)cc1)C(=O)N[C@H](/C=N/NC(=O)OC(C)(C)C)CCc1ccccc1 | 160 nM
Cc1nc2ccc(Nc3nccc(-c4c(-c5cccc(NC(=O)c6c(F)cccc6F)c5)nn5ccccc45)n3)cc2nc1C | 1070 nM
Cc1cccc2[nH]c(-c3ccc(-c4ccc(CNCC(C)C)cc4)cc3)nc12 | 410 nM
CC(CN(C)C)C(=O)Nc1ccc(-c2ccc(-c3nc4ccccc4[nH]3)cc2)cc1 (configuration not stated) | 740 nM
CC(=O)c1c(Cc2cccc(C(F)(F)F)c2)c[nH]c1C | 350 nM
c1cc(CN2CCN(c3ccncc3)CC2)cc(-c2ccc(-c3nc4ccccc4[nH]3)s2)c1 | 150 nM
Cc1cccc2[nH]c(-c3cccc(-c4cccc(NC(=O)Nc5ccsc5)c4)c3)nc12 | 170 nM
CC(C)(C)c1ccc(-c2nnc(N)nc2N)cc1 | 860 nM
N#Cc1cccc(-c2cccc(C(=O)NC3CCC(CCN4CCc5ccc(C#N)cc5CC4)CC3)c2)c1 (configuration not stated) | 260 nM
CN1CCc2ccc(NC(=O)Nc3cccc(C(=O)c4ccccc4)c3)cc2C1 | 920 nM
NCCNc1ccc([N+](=O)[O-])cc1C(=O)Nc1cccc(C(F)(F)F)c1 | 910 nM
Cn1nccc1C(=O)NCCNCc1cccc(-c2cccc(-c3nc4ccc(C(F)(F)F)cc4[nH]3)c2)c1 | 170 nM
Cc1ccc(CN2CCCN(Cc3cccc(C(=O)Nc4ccc(C(C)(C)C)cc4)c3)CC2)s1 | 1130 nM
OC(CNc1ccnc(Nc2ccc(Cl)cc2)n1)c1cccc(C(F)(F)F)c1 (configuration not stated) | 680 nM
CN(CCN1CCC(c2c[nH]c3ccccc23)CC1)C(=O)OCCCCCNC(=O)/C=C/c1ccc(Cl)c(Cl)c1 | 680 nM
CC(C)CCN(Cc1cncn1Cc1ccccc1F)C(=O)c1cncc(-c2ccccc2)c1 | 790 nM
Cc1cc(Cl)c(Cl)cc1NC(=O)Nc1cccc(C(F)(F)F)c1 | 870 nM
CCN(CC)CCN(Cc1ccc(-c2ccc(C#N)cc2)cc1)C(=O)Cn1c(CCc2cccc(F)c2F)nc(=O)c2ccccc21 | 10 nM
COCCNCc1ccc(-c2ccccc2CNC2CCN(Cc3ccccc3)CC2)cc1 | 980 nM

Compound | IC50
CCCS(=O)(=O)N1CCC(CO)(Cc2ccccc2C(F)(F)F)CC1 | 890 nM
Clc1ccc(-c2ncc(-c3ccncc3)[nH]2)cc1Cl | 1060 nM
CCCCCCOc1ccc(C(=O)N(Cc2ccccc2)c2c(-c3ccccc3)nc3cc(C)ccn23)cc1 | 770 nM
Cc1cnc(NCCc2ccc(F)cc2)nc1N[C@@H](CC(C)C)C(=O)Nc1ccccc1 | 970 nM
OC(CNCCCc1ccccc1)c1cc(OCc2ccccc2)cc(OCc2ccccc2)c1 (configuration not stated) | 850 nM
Cc1cccc(C)c1CNc1ccnc2cc(C#N)ccc12 | 680 nM
CCN(CC)CCNc1nccc(N(C)c2ccc(NC(=O)Nc3cc(C(F)(F)F)ccc3F)cc2)n1 | 550 nM
O=C(/C=C/c1ccc(Cl)c(Cl)c1)NCCCCCN1CCCN(C(=O)Nc2ccc(F)c(Cl)c2)CC1 | 800 nM
Cc1nccn1CCNC(=O)CN1CCC2(CCC1=O)CC(=O)c1ccccc1O2 (configuration not stated) | 800 nM
COc1ccc(CCNCCCCCCNCCCc2ccc(Cl)cc2)cc1OC | 950 nM
COc1c(CN2CCCC2)cccc1-c1cc2c(-c3ccc(C(=O)O)c(C(C)C)c3)ccnc2[nH]1 | 440 nM
COc1cc(N(Cc2ccc(F)cc2)C(=O)c2ccc(-c3ccccc3)cc2)ccc1OCCN1CCCC1 | 830 nM
CN(C)CCNc1cc(-c2ccc3ccccc3c2)nc2ccccc12 | 350 nM
CN(c1ccc(NC(=O)c2cccc(F)c2)cc1)C1CCCN(Cc2cccc(O)c2)C1 (configuration not stated) | 1300 nM
c1cc(-c2ccc(CNCc3ccc(-c4csnn4)cc3)cc2)cc(-c2nc3ccccc3[nH]2)c1 | 160 nM
CCc1c(CCNC/C=C/C=C/CNCCc2ccc(OC)c(OC)c2CC)ccc(OC)c1OC | 970 nM
CCN(CCCN1CCCCC1)c1cc(C)nc(Nc2ccc(Cl)c(C(F)(F)F)c2)n1 | 170 nM
Cc1noc(-c2ccc(N3CCC(C(=O)N4CCN(C(C)C)CC4)CC3)cc2)n1 | 1070 nM
COc1ccc(N2CCN(CCCNC(=O)c3ccc(NC(=O)c4cc(Cl)cc(Cl)c4)cc3)CC2)c(OC)c1 | 270 nM
COc1ccc(Nc2ccnc3cc4ccccc4cc23)cc1 | 680 nM
O=C(Nc1cc(=O)[nH]c2nc(-c3ccccc3)nn12)C1CCCCC1 | 420 nM
COc1ccc(Nc2ncc3c(-c4cccc(NC(=O)Cc5ccncc5)c4)c[nH]c3n2)cc1OC | 1230 nM
CCOc1ccc(C(=O)Nc2cc(Br)c3c(c2)CNCC3)cc1Cl | 1040 nM
O=C1COc2ccccc2N1CCN1CCC(NCc2ccc(-c3cccs3)cc2)CC1 | 1430 nM

Compound | IC50
c1ccc(CCNc2ncnc3c2[nH]c2ccccc23)cc1 | 600 nM
CCOC(=O)c1c(CN2CCCC2)n(-c2ccccc2)c2cc(Br)c(O)cc12 | 1010 nM
COc1ccc2nccc([C@@H](O)CN3CCC(NC(=O)C(c4cc5ccccc5o4)N4CCN(c5ccccc5)CC4)CC3)c2c1 (some centres not stated) | 240 nM
COc1ccccc1-c1cc(C(=O)N2CCN(S(=O)(=O)c3ccc(C)cc3)CC2)[nH]n1 | 1160 nM
Oc1ccc(CCNc2nc(NCCCOc3ccccc3-c3ccc(F)cc3)nc(N3CCNCC3)n2)cc1 | 1080 nM
Cc1[nH]c(C)c([N+](=O)[O-])c(=O)c1-c1ccc(Oc2ccccc2)cc1 | 270 nM
CN1CCC[C@H]1COc1ccc(CN2CC[C@H](NC(=O)c3ccc(Cl)c(Cl)c3)C2)cc1Br | 980 nM
COc1cccc2c(Oc3ccccc3C)ccnc12 | 1230 nM
CCOC(=O)N1CCN(CCCCCNc2cc(C)nc(/N=C(\N)Nc3ccc(Cl)cc3)n2)CC1 | 150 nM
CCn1c(-c2nonc2N)nc2cnc(Oc3cccc(NC(=O)c4ccc(OCCN5CCCCC5)cc4)c3)cc21 | 1060 nM
CC(C)N(Cc1ccccc1)C(=O)CN1C(=O)COc2ccc(S(=O)(=O)N3CCCCCC3)cc21 | 250 nM
CCOc1ccc2c(NN=Cc3cccc(F)c3)cc(C)nc2c1 | 710 nM
CC(C)[C@H](NC(=O)c1ccc(O)c(-c2ccc(Cl)c(Cl)c2)c1)C(=O)NCCN(C)C | 1050 nM
CCOC(=O)c1c(-c2ccccc2)c(C(=O)OCC)n2ccccc12 | 610 nM
COc1ccc(-c2c(-c3ccc(OCc4ccccc4)cc3O)n[nH]c2C(F)(F)F)cc1 | 1170 nM
NC(N)=NC(=O)Nc1cc(Cl)c(Cl)c(Br)c1 | 610 nM
CCc1c(C(=O)NC2CCC(N3CCC(c4ccccc4OC)CC3)CC2)[nH]c2ccc(OC)cc12 (configuration not stated) | 1110 nM
CCOc1cc(Cc2cnc(N)nc2N)cc(OCC)c1-n1cccc1 | 760 nM
Cc1nc(C)c(-c2ccc(Oc3ccc(OC(F)(F)F)cc3)cc2)c(OC(=O)c2ccccc2)c1Cl | 180 nM
CC(C)CN(C)Cc1ccc(-c2ccc(-c3nc4ccccc4[nH]3)s2)cc1 | 750 nM
Cc1cc(NN=Cc2ccccc2[N+](=O)[O-])c2ccccc2n1 | 780 nM
CCOc1ccc2nc3cc([N+](=O)[O-])ccc3c(N)c2c1 | 140 nM
CCC1CN2CCc3c([nH]c4ccccc34)C2CC1CC1=NCCc2c1[nH]c1ccccc21 (configuration not stated) | 740 nM
COc1ccc(C2c3cc(OC)c(OC)cc3C(=NO)C2C)cc1OC (configuration not stated) | 1170 nM
